Assay results published in patent publication US7829114B2, “Capsules containing aqueous fill compositions stabilized with derivatized cyclodextrin” (CyDex Pharmaceuticals, Inc., priority 2002, dated 2010).
Where two headings read alike, the source gives them in different places. Each block holds one compound with its values, some of them ahead of it.

Assays:
[1] = Shell stability on exposure to aqueous fill composition (half-shell integrity test, H.S.I.T.); details: for content in fill composition for an HSIT rating of at least 3: PVP and water fill, lipophilic fill-grade BANNER SGC
Protocol: A study was conducted to determine whether or not complexation of a drug to the SAE-CD alters the ability of the SAE-CD to stabilize the capsule shell against dissolution, erosion, swelling or degradation caused by water in the fill composition enclosed within the capsule shell. Banner's hydrophilic, HFB, and lipophilic, LFB, air fill size 35 oval gelatin capsules were used in this study, which was performed as described below. […] The SAE-CD was slowly added to the water while it was stirring and on a hot plate. Agitation continued until all the SAE-CD dissolved. The SAE-CD was divided by weighing in equal amounts into nine vials (one for each drug). […] The amount of drug added produced a composition that contained a normal dose of drug in 1 gram. The vials were agitated and heated until a solution was obtained or the active was uniformly suspended. […]
Method A: Half-Shell integrity Test (H.S.I.T.)
In a closed container, a portion of a capsule shell is exposed to an aqueous fill composition comprising a known amount of derivatized cyclodextrin, water and optionally one or more other excipients. Observation of changes, or lack thereof, on the exposed portion's size, appearance, shape, dissolution, erosion, degradation, hardness, and/or translucence are recorded periodically over time. A rating scale is used to quantify the overall performance of the capsule portion during the test.

[2] = as above; assay type: physicochemical; details: for content in fill composition for an HSIT rating of at least 3: PVP and water fill, lipophilic fill-grade CARDINAL SGC
Protocol: The same tests were performed on gelatin capsules obtained from CARDINAL HEALTH.

[3] = Hard shell capsule stability in aqueous SBE-CD solutions; assay type: physicochemical; details: hardcap
Protocol: Two types of hard shell capsules obtained from […] were evaluated. A conventional hard gelatin capsule (HCAP) and a hard HPMC (hydroxypropyl methylcellulose) capsule (VCAP) were evaluated under identical conditions using aqueous solutions differing in the concentration of SBE-CD (sulfobutyl ether cyclodextrin).

[4] = Shell stability toward aqueous fill composition, statements on soft gelatin capsules; assay type: physicochemical; details: for stability provided to capsules: about ≧50% wt.
[5] = H.S.I.T. rating versus SBE concentration (FIG. 3); assay type: physicochemical
Text: FIG. 3 depicts a chart of the relationship between concentration of SBE cyclodextrin and H.S.I.T. (HALF-SHELL integrity test) rating for HGC (hard gelatin capsule From […]), HGS (hard gelatin capsule from SHIONOGI), HPC (hard hydroxypropyl methylcellulose shell from […]), and HPS (hard hydroxypropyl methylcellulose shell from SHIONOGI), and SSS (soft starch shell […]). The stability obtained was dependent upon the composition of the capsule gel.

[6] = Water activity measurement; assay type: physicochemical; details: about 20-25° C.
Protocol: Without being held bound to a particular mechanism, it is believed that the increasing the concentration of derivatized cyclodextrin present in the aqueous fill composition results in reduced water activity for the fill composition. The table below provides a summary of water activity versus concentration of cyclodextrin derivatives or some shell-stabilizing materials in water at about 20-25° C., or ambient temperature.
The values detailed above are approximate and can vary from instrument to instrument. These values were determined according to the procedure described herein on a water activity meter described herein. The numbers can also vary within the standard deviation of a particular instrument. It is also possible for the numbers to vary according to the accuracy and reproducibility of the instrument used as well as the method for calibrating the instrument with solution standards of known water activity.
Water activity was measured by placing a sample solution in a small, sealed container and determining the equilibrium humidity and temperature in the container. Instruments such as the HygroLab 3 from Rotronic Instrument Corp. , Huntington, N.Y. were used to measure the water activity. The humidity is determined using a thin film capacitive sensor in the headspace of the container. The temperature is determined using a Pt RTD 100 sensor. From these measurements the activity of water (Aw) is calculated by the instrument. The instrument has an accuracy of about ±0.015 Aw and a repeatability of about ±0.005 Aw. Carefully prepared salt-containing stock solutions of known concentration and water activity were used to calibrate the instrument prior to use.

[7] = 40% wt. cyclodextrin derivative in water, LFB
[8] = 50% wt. cyclodextrin derivative in water, LFB
[9] = 55% wt. cyclodextrin derivative in water, LFB
[10] = 60% wt. cyclodextrin derivative in water, LFB
[11] = 40% wt. cyclodextrin derivative in water, LFC
[12] = 50% wt. cyclodextrin derivative in water, LFC
[13] = 55% wt. cyclodextrin derivative in water, LFC
[14] = 60% wt. cyclodextrin derivative in water, LFC

Compound: O [Water]
content in fill composition for a stabilized capsule formulation ([1]; SAE-CD, PEG and water fill, LFB): ≦50% | content in fill composition for an HSIT rating of at least 3 ([1]; SAE-CD): ≦54% | content in fill composition for a stabilized capsule formulation ([2]; SAE-CD, PEG and water fill, LFC): ≦48% | content in fill composition for an HSIT rating of at least 3 ([2]; SAE-CD): ≦49%

content in fill composition for a stabilized capsule formulation [1]: ≧18% | Increase in shell size [1, 7]: 2.5× × original | Observations [1, 7]: shape intact | Time for failure [1, 7]: 3 days | Increase in shell size [1, 8]: 2.5 × original | Observations [1, 8]: Deformed | Time for failure [1, 8]: 7 days | Increase in shell size [1, 9]: 2 × original | Observations [1, 9]: Deformed | Time for failure [1, 9]: 10 days | Increase in shell size [1, 10]: no change in length | Observations [1, 10]: Slight | Time for failure [1, 10]: ≧21 days | content in fill composition for a stabilized capsule formulation [2]: ≧18% | Increase in shell size [2, 11]: >3 × original | Observations [2, 11]: shape intact | Time for failure [2, 11]: 4 days | Increase in shell size [2, 12]: 2 × original | Observations [2, 12]: deformed | Time for failure [2, 12]: 7 days | Increase in shell size [2, 13]: Slightly enlarged | Observations [2, 13]: No deformities | Time for failure [2, 13]: ≧14 days | Increase in shell size [2, 14]: no change | Observations [2, 14]: no change | Time for failure [2, 14]: >21 days | Observations ([3]; 30% SBE solution): deformed/bends | failure time ([3]; 30% SBE solution): 24 h | size ([3]; 30% SBE solution): 2 × × length | Observations ([3]; 40% SBE solution): deformed/closed | failure time ([3]; 40% SBE solution): 48 h | size ([3]; 40% SBE solution): >2 × × width | Observations ([3]; 50% SBE solution): deformed/closed | failure time ([3]; 50% SBE solution): 48 h | size ([3]; 50% SBE solution): 2 × × width | Observations ([3]; 60% SBE solution): closed/stuck | failure time ([3]; 60% SBE solution): 96 h | size ([3]; 60% SBE solution): 2 × × width | stability provided to capsules ([4]; LFB and LFC soft gelatin capsules as printed, FIG. 2): at least a one week stability | stability provided to capsules ([4]; LFB and LFC soft gelatin capsules, FIG. 1): at least a one week stability | water activity of fill composition that forms a stable soft gelatin capsule formulation ([4]; fill composition comprising SBE-CD, PEG and water, FIG. 8): ≤ 0.90±0.02 | water activity of fill composition that provides an increase in the stability of the shell ([4]; soft-gelatin capsule, the agent alone in water): less than 0.95 | stability provided to capsules ([5]; SBE concentration of about ≧60% wt., hard gelatin capsules): at least a one-week stability | stability provided to capsules ([5]; hard hydroxypropyl methylcellulose capsules): at least a two-week stability | Water Activity (approximate values) ([6]; 10 % w/w in water): ~0.98 | Water Activity (approximate values) ([6]; 20 % w/w in water): ~0.98 | Water Activity (approximate values) ([6]; 30 % w/w in water): ~0.97 | Water Activity (approximate values) ([6]; 40 % w/w in water): ~0.95 | Water Activity (approximate values) ([6]; 50 % w/w in water): ~0.91 | Water Activity (approximate values) ([6]; 55 % w/w in water): ~0.88 | Water Activity (approximate values) ([6]; 60 % w/w in water): ~0.86 | Water Activity (approximate values) ([6]; 70 % w/w in water): ~0.76
Compound: sulfobutyl ether cyclodextrin [SAE-CD]
content in fill composition for an HSIT rating of at least 3 ([1]; SAE-CD): ≧6% | content in fill composition for an HSIT rating of at least 3 ([2]; SAE-CD): ≧6% | shelf-life of soft gelatin capsules ([4]; 50% wt. or more based upon total weight of water and SAE-CD or of the fill composition): at least one week | stability of shell toward fill composition ([4]; soft gelatin shells from BANNER PHARMACAPS, less than 40% by wt. SAE-CD): unstable | stability of shell toward fill composition ([4]; soft gelatin shells from BANNER PHARMACAPS, ≧50% wt. SAE-CD): stable for at least one week | stability of shell toward fill composition ([4]; soft gelatin shells from BANNER PHARMACAPS, ≧55% wt. SAE-CD): stable for at least ten days | stability of shell toward fill composition ([4]; soft gelatin shells from BANNER PHARMACAPS, ≧60% wt. SAE-CD): stable for at least three weeks | stability of shell toward fill composition ([4]; soft gelatin shells from CARDINAL HEALTH, less than 40% by wt. SAE-CD): unstable | stability of shell toward fill composition ([4]; soft gelatin shells from CARDINAL HEALTH, ≧50% wt. SAE-CD): stable for at least one week | stability of shell toward fill composition ([4]; soft gelatin shells from CARDINAL HEALTH, ≧55% wt. SAE-CD): stable for at least two weeks | time the capsules were stable ([4]; soft gelatin shells from CARDINAL HEALTH, ≧60% wt. SAE-CD): at least 21 days
